# Test results reported in US8673852B2, “Methods of treating neuronal disorders using MNTF peptides and analogs thereof” (Genervon Biopharmaceuticals, LLC, priority 2006, dated 2014).
# Where “and” joins values, the source holds several entries; their conditions need not be identical. Equal entries are not always repeated. Where two headings read alike, the source gives them in different places. Ends that are not written are not given here.
# Key:
# SH-SY5Y cells = assay: Cell culture model of Parkinson's disease: SH-SY5Y cell viability (MTT) with or without salsolinol; assay type: cell-based, human; conditions: for Viability (% Cells) Mean ± SD: 24 h
# Method: SH-SY5Y cells were purchased from American Type Culture Collection (Manassas, Va.) and cultured in a complete media containing minimum essential media, Hams F-12 media and Hanks Balanced Salt Solution Gibco-BRL) in a ratio of 2:1:1. The media also contained 10% fetal bovine serum along with penicillin (50 U/ml) and streptomycin ([…]). The cells were cultured in flasks and kept in a humidified incubator containing 5% CO2 in air at 37° C. The media was changed every 2-3 days.
# Prior to manipulation, cultures were assigned to different treatment groups based on a randomized block design.
# For cell viability experiments, SH-SY5Y cells (0.5×10^5/well) were cultured in a 96-well cell culture plate and treated with (±) SAL (Sigma, St. Louis, Mo.) alone or along with different concentrations of (GM6) (Genervon), with or without Wortmannin (WRT) (Sigma, St. Louis, Mo.), a phosphatidylinositol-3-kinase (PI-3 kinase) inhibitor, for 24 h. Cell viability was determined by Thiazolyl blue (MTT) assay.
# [1] = GM6 levels in brain by competitive ELISA after IV injection (blood brain barrier penetration); assay type: in vivo, C57BL/6 mice; conditions: for increase in GM6 in the brain vs vehicle: 4 hours; for level at time molar at 4 h: male, C57BL/6, mouse, WT mice, brain collected 4 hours later, read-out: ELISA MNTF (μM) in the brain
# Method: (§1) C57BL6 mice were injected with GM6 at the indicated doses and examined for GM6 in the brain. Half of the brain was taken for immunocytochemical analysis for GM6, the other half (brain) was frozen for ELISA analysis.
# (§2) Animals were acclimated for 1 week prior to experimentation. The animals were bolus i.v. dosed via tail vein with vehicle or GM6 at 0.2 or 2 mg/kg. […] Vehicle control received saline solution.
# To measure GM6 levels in samples using the competitive ELISA kit. Affinity purified rabbit anti-6Mer was coated on ELISA plate at 10 ug/ml in coating buffer. 6Mer-biotin was used at 1 uM (final dilution) in the assay. The known concentrations of GM6 (competitor) were used as reference standards starting from 80 uM and titrating 2-fold down 0.625 uM in the test for establishing standard curve. Concentration of tested samples was estimated from their OD450 observation based on the standard curve.
# The brain tissue was prepared in cell lysis buffer containing 100 mM Tris HCl, pH 7.0, containing 2% BSA, 1 M NaCl, 4 mM EDTA, 2% Triton X-100, 0.1% sodium azide and protease inhibitors (Complete™, Mini, Boehringer Mannheim). Homogenates were prepared in 10 volumes of buffer to tissue wet weight. The homogenates were centrifuged for 30 minutes at 14,000×g. The resulting supernatant was used for ELISA with the appropriate volume adjustment.
# For the assay, the anti-6Mer pAb was diluted to 10 ug/ml in ELISA coating buffer. The 96-well micro-titer plates were coated with 100 ul/well of the diluted pAb. The plates were covered and kept refrigerated overnight. Next day, the plates were blocked with 200 ul/well TBS with 3% BSA, and kept at RT for 60 min. The plates were washed 3× with TBST (TBS+0.05% Tween 20). For each plate, 10 ml 1 uM 6Mer-biotin and make 1 ml standard mix was prepared: 1 uM 6Mer-biotin with 80 uM 6Mer. For each plate, lanes 1 and 2 were used for the standard curve. 1 uM 6Mer-biotin (100 μl) was added to all wells except A1 and A2 and 200 ul/well of standard mix was added to A1 and A2. A serial 2-fold dilution from wells A1 and A2 down to wells H1 and H2 was performed by taking out 100 ul sample from each well and mix it with next well—pipetting up and down at least 8 times. The extra 100 ul at the final wells (H1 and H2) was discarded. Test samples (brain homogenate) was diluted in Ab dilution buffer and mixed at a 1:50 with the 1 uM 6Mer-biotin. The plate was mixed on a shaker at 400 rpm for 2 hours at RT. The samples were washed 6× with TBST. Streptavidin-HRP (10 ml per plate) solution was prepared by diluting Streptavidin-HRP to 1:2000 in Ab dilution buffer. The plate was mixed on the shaker for another 1 hour at RT. The samples were wash 8× with TBST. […] The reaction was stopped with 50 ul 1M HCl. and read OD450 immediately.
# [2] = system: middle cerebral artery occlusion (MCAO) mouse model; assay: MCAO mouse model, 1 hour ischemia and 14 days reperfusion, time of first dose varied; assay type: in vivo, C57BL/6 mice; conditions: 5 mg/kg IV
# Method: (§3) The MABP and heart rate was recorded using a Visitech System blood pressure monitor.
# Formulation of GM602 (CS Bio Co., Menlo Park, Calif., CS1507, GMP013, lot C811) was performed by NTS as a stock solution by reconstituting GM602 with (100%) saline that was stored at 4° C. Vehicle control received saline solution. The bolus IV injections via tail with GM602 was initiated at times of 0, 3, 6, 12 and 24 hours after the start of reperfusion and subsequently every day for 3 days following injury.
# (§4) This study involved a transient model of ischemia. […] After the nylon suture was in place for 1 hour, it was pulled back into the ECA and the incision closed.
# . […] The brains were removed and chilled for 15 minutes at −20° C. before being placed in a Rodent Brain Matrix. Coronal sections (1-mm thickness) were prepared and subjected to 2% triphenyltetrazolium chloride (TTC) staining at 37° C. Seven serial one-mm thick coronal sections through the rostral to caudal extent of the infarction were obtained from each brain, beginning two-mm from the frontal pole. […] The infarct area in each section was determined with a computer-assisted image analysis system, consisting of a Power Macintosh computer equipped with a Quick Capture frame grabber card, Hitachi CCD camera mounted on an Olympus microscope and camera stand. […] The images were captured and the total area of damage determined over the seven sections.
# Safety in animal studies = assay type: in vivo; conditions: over 1000 Sprague Dawley rats and 15 of both wobbler mice and normal littermates
# [3] = system: permanent middle cerebral artery occlusion (MCAO) rat model; assay: Permanent middle cerebral artery occlusion (MCAO) rat model, 28 days; conditions: 2.5, 10 or 20 mg/kg IV
# [4] = system: middle cerebral artery occlusion (MCAO) mouse model; assay: Middle cerebral artery occlusion (MCAO) mouse model, 1 hour ischemia and 24 hours reperfusion; assay type: in vivo, C57BL/6 mice; conditions: 1 or 5 mg/kg IV single dose
# Method: as §3
# All animals were subjected to 1.0 h ischemia followed by 24 h reperfusion. […] Vehicle control received saline solution.
# as §4
# . The brains were transcardially perfused with 4 degree C., 10% phosphate-buffered saline (PBS). The brains were removed and chilled for 15 minutes at −20 degree C. before being placed in a Rodent Brain Matrix. Coronal sections (1-mm thickness) were prepared and subjected to 2% triphenyltetrazolium chloride (TTC) staining at 37 degree C. Seven serial one-mm thick coronal sections through the rostral to caudal extent of the infarction were obtained from each brain, beginning two-mm from the frontal pole. The TTC stained sections were placed in 10% neutral buffered formalin and kept in darkness at 4° C. for at least 24 hours. The infarct area in each section was determined with a computer-assisted image analysis system, consisting of a Power Macintosh computer equipped with a Quick Capture frame grabber card, Hitachi CCD camera mounted on an Olympus microscope and camera stand. NIH Image Analysis Software, v. 1.55 was used. The images were captured and the total area of damage determined over the seven sections.
# [5] = system: primary rat neuronal cell cultures; assay type: cell-based
# Method: Sprague Dawley rat cortical neuronal cells were isolated from 18-day-old embryonic fetuses and growth in culture for 12 days. Post mortem CSF from control and various neurological disorders donors were applied to the cultures and examined for neuronal viability. In addition, MNTF was added to the cultures to protect the cells from injury.
# Neuronal cultures were prepared from 18-day-old Sprague-Dawley rat fetuses. Fetal rat midbrains were dissected and incubated for 15 min in a solution of 2 mg/mL trypsin in Ca2+- and Mg2+-free Hanks' balanced salt solution (HBSS) buffered with 10 mM HEPES (GIBCO Life Technologies, Paisley, Scotland). The tissue was then exposed for 2 min to soybean trypsin inhibitor (1 mg/mL in HBSS) and rinsed three times in HBSS. Cells were dissociated by trituration and distributed to 96-well or 24-well poly-L-lysine-coated plastic culture plates (Costar, Cambridge, Mass.). Initial plating densities were approximately 160-180 cells/mm2. At the time of plating, each well contained 0.2 ml of DMEM/F12 medium (GIBCO Life Technologies, NY) supplemented with 100 mL/L fetal bovine serum (Sigma Chemicals, St. Louis, Mo.). After a 24-hr period, the DMEM/F12 medium was replaced with 0.15 mL of 2% v/v B-27 Neurobasal medium supplemented with 2 mM GlutaMAX and 0.5% w/v D-(+) glucose (GIBCO Life Technologies). Twice a week, two-thirds of the Neurobasal medium was replaced with freshly prepared medium of the same composition. Cultures were used for neurotoxicity experiments after 12 days in culture. The research investigators at NTS were unaware of the material prior to, during the study and when the preliminary data were presented to the Sponsor (GB).
# UCLA Human Brain and Spinal Fluid Resource Center (Los Angeles, Calif.) supplied the post mortem CSF samples from five donors of each of the nine study groups along with identification and clinical diagnosis and neuropathology diagnosis documents. Samples were stored at −170° C. prior to shipment and were shipped with dry ice. The study groups were control (no neurological disorder), Amyotrophic Lateral Sclerosis (ALS), Neuropathy (NP), Multiple Sclerosis (MS), Alzheimer's Disease (AD), Batten's Disease (BD), Huntington's Disease (HD), Parkinson's Disease (PD), and Cerebral Ischemia (stroke).
# To test the effects of CSF on neuronal cell survival, CSF was added to the cultures in Neurobasal medium containing 10% CSF. CSF was added to the cultures and examined after 48 hours. Images of cultures were taken and then the cultures were subjected to MTT assay (see below) to determine the % cell death. Additional cultures were incubated with MNTF (100 nM) added to the cultures 2 hours prior to addition of CSF.
# MTT assay. Viability of primary neurons was determined as described. The relative number of surviving cells was determined in triplicate using the value for cells stimulated with vehicles as 100%. Cell survival was assessed on the 2nd day of treatment via an MTT assay. MTT (3-[4,5-dimethylthiazol-2-yl]-2,5-diphenyltetrazolium bromide) was diluted to […] in Hanks' solution (Biochrom) and added to cultures for two hours at 37° C. The MTT formazan product was released from the cells by adding dimethylsulfoxide, and measured at 570 nm in an Ultrospect III spectrophotometer (Pharmacia). Relative survival in comparison to untreated controls could then be determined.
# [6] = Immunocytochemical analysis of brain for GM6 with anti-6mer antibody; assay type: in vivo, C57BL/6 mice; conditions: 0.2 or 2 mg/kg IV
# Method: as §1, §2
# The immunocytochemical stained area in each section was determined with a computer-assisted image analysis system, consisting of a Power Macintosh computer equipped with a Quick Capture frame grabber card, Hitachi CCD camera mounted on an Olympus microscope and camera stand. NIH Image Analysis Software, v. 1.55 was used. The images were captured and the total area of GM6 peptide was determined over the ten sections.
# embryonic stem cells = assay: Differentiation of embryonic stem cells into motor neurons in vitro; assay type: cell-based, murine
# [7] = system: stem cell derived motor neurons; assay: Survival of stem cell derived motor neurons; assay type: cell-based; conditions: compared with MNTF 33mer
molecule,measurement,setting,value
"C[C@@H]1NCCc2cc(O)c(O)cc21 [Salsolinol, reference compound]",Viability (% Cells) Mean ± SD,"SH-SY5Y cells; Salsolinol 100 μM alone, MTT",36.48 ± 12.78%
same,Viability (% Cells) Mean ± SD,"SH-SY5Y cells; Salsolinol 100 μM alone, MTT, listed as SAL",36.5%
same,decrease in the number of cells,"SH-SY5Y cells; salsolinol 100 μM, 24 hour treatment",63.7%
"FSRYAR [GM6, FSRYAR]",increase in GM6 in the brain vs vehicle,[1]; 0.2 mg/kg IV bolus,400%
same,increase in GM6 in the brain vs vehicle,[1]; 2 mg/kg IV bolus,3000%
same,level at time molar at 4 h,[1]; 0.2 mg/kg IV bolus,1.76 µM
same,level at time molar at 4 h,[1]; 2 mg/kg IV bolus,12.9 µM
same,"changes in CBF, HR, BP, pO2, pCO2, or pH",[2],no changes
same,safety problems in animal studies,Safety in animal studies,No safety problems were identified
same,"changes in HR, BP, pO2, pCO2, or pH",[3],no changes
same,Viability (% Cells) Mean ± SD,"SH-SY5Y cells; GM6 0.1 mg/ml, no salsolinol, MTT",101.2 ± 7.260%
same,Viability (% Cells) Mean ± SD,"SH-SY5Y cells; GM6 1 mg/ml, no salsolinol, MTT",108.0 ± 8.249%
same,Viability (% Cells) Mean ± SD,"SH-SY5Y cells; GM6 10 mg/ml + WRT (10 μM), no salsolinol",93.81 ± 9.246%
same,Viability (% Cells) Mean ± SD,"SH-SY5Y cells; GM6 10 mg/ml, no salsolinol, MTT",119.9 ± 14.01%
same,Viability (% Cells) Mean ± SD,SH-SY5Y cells; Salsolinol 100 μM + GM6 0.1 mg/ml,66% and 65.85 ± 10.80%
same,Viability (% Cells) Mean ± SD,SH-SY5Y cells; Salsolinol 100 μM + GM6 1 mg/ml,85% and 85.19 ± 10.18%
same,Viability (% Cells) Mean ± SD,SH-SY5Y cells; Salsolinol 100 μM + GM6 10 mg/ml + WRT (10 μM),41.35 ± 10.79%
same,Viability (% Cells) Mean ± SD,SH-SY5Y cells; Salsolinol 100 μM + GM6 10 mg/ml,95% and 95.57 ± 8.328%
same,"changes in HR, BP, pO2, pCO2, or pH",[4],no changes
same,% increase (↑) in cell survival,[5]; AD CSF + 100 nM MNTF vs AD CSF,191%
same,% increase (↑) in cell survival,[5]; ALS CSF + 100 nM MNTF vs ALS CSF,175%
same,% increase (↑) in cell survival,[5]; HD CSF + 100 nM MNTF vs HD CSF,271%
same,% increase (↑) in cell survival,[5]; MS CSF + 100 nM MNTF vs MS CSF,246%
same,% increase (↑) in cell survival,[5]; PD CSF + 100 nM MNTF vs PD CSF,198%
same,% increase (↑) in cell survival,[5]; Stroke CSF + 100 nM MNTF vs Stroke CSF,205%
same,immunoreactivity for GM6 in brain tissue,[6],No immunoreactivity was detected
LGTFWGDTLNCWMLSAFSRYARCLAEGHDGPTQ (LGTFWGDTLNCWMLSAFSRYARCLAEGHDGPTQ) [33-mer],differentiation of ES cells into motor neurons,embryonic stem cells; in conjunction with a low concentration of RA,induced differentiation
MLSAFSRYAR [MNTF 10mer],concentrations at which at least as effective as the full-length MNTF 33mer at stimulating differentiation of embryonic stem cells into motor neurons,embryonic stem cells; in vitro,≥ 0.01 µg/mL
same,enhancing the survival of stem cell derived motor neurons,[7],nearly as effective as the MNTF 33mer
